Data from paper PMC7915902, “Preclinical Evaluation of [^18F]FACH in Healthy Mice and Piglets: An ^18F-Labeled Ligand for Imaging of Monocarboxylate Transporters with PET” (International Journal of Molecular Sciences, 2021).
“And” between values parts separate entries of the source, which are not always exact repeats. Identical values can stand only once.

Assays:
SMCT1 = system: SMCT1; design: method as in PMID 31017677; conditions: [14C]nicotinate uptake assay; read-out: IC50 towards SMCT1; cited from earlier work
[1] = design: method as in PMID 32357571; conditions: from dosimetry studies in piglets; cited from earlier work
MCT1 [2] = system: MCT1; design: method as in PMID 31017677; conditions: L-[14C]lactate uptake, rat brain endothelial cells; read-out: IC50 towards MCT1; cited from earlier work
[3] = Metabolism and renal excretion of [18F]FACH in mice (radio-HPLC)
Protocol: Radio-metabolites were analyzed by analytical and semi-preparative HPLC on a JASCO LC-2000 system (JASCO Labor- und Datentechnik, Gross-Umstadt, Germany), consisting of a PU-2080 Plus pump, AS-2055 Plus auto injector (100 μL sample loop) or a manual injection valve with a 5 mL sample loop, and a UV-2070 Plus detector coupled with a gamma radioactivity HPLC detector (Gabi Star, Raytest Isotopenmessgeräte GmbH, Straubenhardt, Germany). Data analysis was performed with the Galaxie chromatography software (Agilent Technologies, Santa Clara, CA, USA). Monitoring of UV absorption was done at wavelengths of 254 and 400 nm (400 nm was detected as λmax for this class of compounds). For analytical and semi-preparative radio-HPLC analyses, Reprosil-Pur columns (C18-AQ 250 × 4.6 mm; 5 μm; and C18-AQ 150 × 4.6 mm; 10 μm; Dr. Maisch HPLC GmbH; Ammerbuch-Entringen, Germany) were used. Acetonitrile (ACN) mixed with a 20 mM aqueous solution of ammonium acetate (NH4OAc) was used as eluent.
[^18F]FACH (33.8 ± 3.3 MBq in 200 μL isotonic saline) was injected in awake CD-1 mice (n = 4) via a tail vein. At 30 min after radiotracer administration, the mice were anaesthetised with isoflurane, and retro-orbital blood was sampled, followed by cervical dislocation and collection of released urine.
In mouse studies, at 30 min after i.v. injection of the radiotracer [^18F]FACH, the plasma was isolated by centrifugation of a blood sample at 10,000 rpm for 2 min. […]
Protein precipitation of plasma and tissue homogenates was performed by addition of ice-cold ACN/H2O (9:1, v/v) at a ratio of 4:1 (v/v) of the solvent mixture to each tissue sample (n = 2). […] The combined supernatants (total volume between 1 to2 mL) were concentrated at 70 °C under argon flow to a final volume of approximately 100 μL and analyzed by analytical radio-HPLC. […] To determine the percentage of the radioactivity in the supernatants compared to the total radioactivity aliquots were taken at each step and, as well as the precipitates, quantified by gamma counting.

MCTs = experiment: Autoradiographic saturation binding (homologous displacement) in mouse kidney cryosections
Protocol: Cryosections from the mouse kidney (10 µm) were cut on a microtome (Microm HM560, Thermo Scientific Microm, Fisher Scientific GmbH, Schwerte, Germany), mounted on glass slides (SuperFrost, Thermo Scientific Menzel, Fisher Scientific GmbH), dried for two hours at room temperature, and stored at −25 °C. Before the binding experiment, the tissue slices were dried under a stream of cold air, pre-incubated with PBS (pH 7.4) for 15 min at room temperature and dried again before incubation with PBS containing [^18F]FACH (1.2 nM) without (total binding) and with different concentrations of FACH-Na (10 µM–0.1 nM; homologous competition) for 60 min. Specific binding to MCTs of [^18F]FACH in cryosections of mouse kidney was determined after co-incubation of 1 nM [^18F]FACH with vehicle or 300 nM α-CCa-Na or 300 nM reference compound (homologous competition).
The incubation was terminated by washing with ice-cold buffer (50 mM TRIS-HCl, pH 7.4) twice for two minutes followed by dipping in ice-cold demineralized water for 5 s and drying under a stream of cold air. The dried sections along with activity standards (1 µL aliquots of different dilutions of the incubation solution dried on microscopic slides) were exposed to phosphor imaging plates (FujiFilm Co., Tokyo, Japan) transferred after 120 min to a phosphor imager (HD-CR 35 Bio; Dürr NDT GmbH & Co. KG, Bietigheim-Bissingen, Germany). Regions of interest (ROIs) were drawn manually or automatically on the tissue slices or standard spots, and the pixelwise results converted to Bq/mg wet weight. Non-linear regression analysis was performed with GraphPad Prism (v.3.0 GraphPad Software, San Diego, CA, USA). KD and Bmax values were calculated by the simplified Cheng and Prusoff equation (http://www3.uah.es/farmamol/Public/GraphPad/radiolig.htm, accessed on 5 February 2021):(1) KD=Ki=IC50−Radioligand (M) (2) Bmax=Top−Bottom/Radioligand (M)/(KD+Radioligand (M))

[4] = Metabolism and renal excretion of [18F]FACH in piglets (radio-HPLC, graphical analysis)
Protocol: Radio-metabolites were analyzed by analytical and semi-preparative HPLC on a JASCO LC-2000 system (JASCO Labor- und Datentechnik, Gross-Umstadt, Germany), consisting of a PU-2080 Plus pump, AS-2055 Plus auto injector (100 μL sample loop) or a manual injection valve with a 5 mL sample loop, and a UV-2070 Plus detector coupled with a gamma radioactivity HPLC detector (Gabi Star, Raytest Isotopenmessgeräte GmbH, Straubenhardt, Germany). Data analysis was performed with the Galaxie chromatography software (Agilent Technologies, Santa Clara, CA, USA). […] For analytical and semi-preparative radio-HPLC analyses, Reprosil-Pur columns (C18-AQ 250 × 4.6 mm; 5 μm; and C18-AQ 150 × 4.6 mm; 10 μm; Dr. Maisch HPLC GmbH; Ammerbuch-Entringen, Germany) were used. Acetonitrile (ACN) mixed with a 20 mM aqueous solution of ammonium acetate (NH4OAc) was used as eluent.
In corresponding piglet studies (n = 5), plasma was separated from the arterial blood samples drawn during the PET recordings at certain time points.
In piglet studies, similar procedures were implemented for preparing samples from plasma collected at 15, 30, 45 and 60 min p.i., with the exception of collecting the urine sample only at 60 min p.i. Additionally, in order to measure the radio-metabolites in the piglet kidney, the tissue was resected at 60 min p.i. and after washing in PBS, samples of the kidney cortex and medulla were isolated and homogenized in demineralized water (2 mL/g tissue) using a borosilicate glass mortar with ten strokes of a PTFE plunger at 1000 rpm (Potter S, Homogenizer, B. Braun Biotech, Sartorius AG, Göttingen, Germany). Protein precipitation was performed by addition of ice-cold ACN/H2O at a ratio of 4:1 (v/v) of organic solvent to each tissue sample. The samples were vortexed for 3 min, placed on ice for 3 min, and the suspensions were centrifuged at 12,000 rpm at 4 °C for 5 min. For the second extraction, the precipitates were washed with 200 μL of the solvent mixture and subjected to the same procedure. The combined supernatants (total volume between 68 mL) were concentrated at 70 °C under argon flow to a final volume of approximately 2 mL and analyzed by semi-preparative RP radio-HPLC. […] The analyses were performed in gradient mode using 10% ACN/20 mM NH4OAc (aq.) as eluent A and 90% ACN/20 mM NH4OAc (aq.) as eluent B under the following conditions:
To determine the percentage of the radioactivity in the supernatants compared to the total radioactivity aliquots were taken at each step and, as well as the precipitates, quantified by gamma counting.
By interpolation of the measured radio-metabolite fractions from the piglet PET studies, the continuous TACs for [^18F]FACH and its radio-metabolites were calculated. Subsequently, the magnitudes of the whole body rate constant for [^18F]FACH metabolism (k0) and the elimination rate constant for the radio-metabolites (k−1) under control and pre-treated conditions were calculated as described previously [32]. Graphical analysis of the integrals of the plasma time-concentration series of PET tracers and their radio-metabolite(s) follow a linear relationship [32, 47], where the ordinate intercept is equal to the whole body fractional rate constant for the metabolism of the parent, designated k0 (min^−1). The linear regression slope corresponds to the fractional rate constant for the elimination of the radio-metabolite from circulation, designated k−1 (min^−1), which indicates the renal clearance of the radio-metabolite.

MCT1 [5] = target: T1, MCT1 (Mus musculus, UniProt P53986); experiment: MCT1 specific cell uptake of [18F]FACH in 4T1 cells; format: cell-based; conditions: control (vehicle), 30 min incubation, 37 °C, pH 7.4
T1 construct: endogenous in cells; host or cells: 4T1 cells (murine triple negative breast cancer), a gift from István Krizbai's group
T1 sequence (P53986 1-493): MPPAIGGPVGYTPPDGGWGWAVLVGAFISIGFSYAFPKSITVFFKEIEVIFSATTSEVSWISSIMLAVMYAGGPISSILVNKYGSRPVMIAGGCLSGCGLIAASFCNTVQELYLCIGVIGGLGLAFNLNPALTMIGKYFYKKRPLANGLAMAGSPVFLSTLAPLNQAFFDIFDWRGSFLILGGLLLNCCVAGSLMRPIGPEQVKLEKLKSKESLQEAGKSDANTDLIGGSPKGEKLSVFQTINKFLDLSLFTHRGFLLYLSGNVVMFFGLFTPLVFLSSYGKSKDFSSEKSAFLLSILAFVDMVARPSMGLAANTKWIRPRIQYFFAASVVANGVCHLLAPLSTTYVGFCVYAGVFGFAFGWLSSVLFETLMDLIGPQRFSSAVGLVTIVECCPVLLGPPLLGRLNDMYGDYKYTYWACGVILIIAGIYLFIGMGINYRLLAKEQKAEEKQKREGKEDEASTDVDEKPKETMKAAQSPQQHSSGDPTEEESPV
T1 sequence (P18572 140-389 partner limits assumed): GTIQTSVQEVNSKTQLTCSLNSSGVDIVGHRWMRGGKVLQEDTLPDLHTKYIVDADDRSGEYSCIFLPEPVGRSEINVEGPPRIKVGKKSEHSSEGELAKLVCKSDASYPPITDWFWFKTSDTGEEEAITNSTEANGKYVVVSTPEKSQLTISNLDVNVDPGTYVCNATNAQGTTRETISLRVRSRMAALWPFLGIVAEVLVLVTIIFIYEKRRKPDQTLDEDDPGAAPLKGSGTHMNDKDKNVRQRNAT
Protocol: Afterwards, the cell culture media was replaced with 500 µL RPMI 1640 supplemented with 20 mM HEPES adjusted to pH 7.4 without FCS and incubated for 16 h at 37 °C and 5% CO2. […] After a 30 min incubation, cells were collected on ice and washed three times with phosphate buffer saline and subsequently dispersed in 500 µL 0.1 N NaOH at room temperature for 10 min. The activity of 100 µL cell solution was measured in a gamma counter and normalized to initial dose. Protein content of 10 µL portions of cell solution was measured with a BCA Kit (Pierce, Thermo Fisher Scientific GmbH) relative to a BSA standard curve, and binding was normalized to units of %ID/ mg protein.

radioactivity in bladder/urine (renal excretion) ([3]; mice, 60 min p.i., control): 0.51 ± 0.39 %ID
intact [18F]FACH in plasma ([3]; mouse plasma, 30 min p.i.): More than 99%
[18F]FACH (parent) in urine ([3]; mouse urine): < 5%
Kd (MCTs; mouse kidney cortex (Co) cryosections): 0.118 ± 0.012 µM
Kd (MCTs; mouse kidney inner medulla (IM) cryosections): 0.265 µM
Kd (MCTs; mouse kidney outer medulla (OM) cryosections): 0.212 µM
apparent rate constant (k0) for [18F]FACH metabolism ([4]; piglets, control): 0.87 ± 0.34 min⁻¹
parent radiotracer fraction in plasma ([4]; piglets, control, 60 min): 8.8 ± 4.8%
parent radiotracer fraction in plasma ([4]; piglets, control, five min): 42 ± 13%
intact radiotracer in urine ([4]; piglets, urine 60 min p.i.): no intact radiotracer was detectable
parent fraction of [18F]FACH in kidney cortex ([4]; two control piglets, 60 min p.i.): 50.5% and 48.0%
cell-associated radioactivity (MCT1 [5]): 4.7 %ID/mg protein
SMILES: CCCN(CCC[18F])c1ccc(/C=C(\C#N)C(=O)O)c(OC)c1 [[^18F]FACH, (E)-2-cyano-3-{4-[(3-[^18F]fluoropropyl)(propyl)amino]-2-methoxyphenyl}acrylic acid]
IC50 (SMCT1): 78 µM
predicted effective radiation dose for humans [1]: about 2 mSv/100 MBq
IC50 (MCT1 [2]): 0.011 µM
